Assays:
[1] = test system: hES derived cardiomyocytes; test: Chronotropic response (beating rate) of dissociated hES-derived cardiomyocytes; assay type: cell-based, human; settings: cultured dissociated hES cardiomyocytes
Source text: (§1) FIG. 4. Action potentials and chronotropic responses. […] C.
Co-cultures were initiated as for END-2 cells.
(§2) Ventricular-like action potentials predominated (28 out of 33; table 2) but atrial-like (n=2), pacemaker-like (n=1) and vascular smooth muscle like-cells (n=2) were also found. In areas in which the cells were not beating but had adopted morphologies indistinguishable from beating areas (FIG. 1F), current injection was sufficient to induce repeated action potentials and sustained synchronous rhythmic contractions. Transcripts for MLC-2v were also detected by RTPCR in non-beating, myocyte-like areas (not shown); scoring beating muscle may thus underestimate the number of cardiomyocytes present in culture. […] The effects of phenylephrine, isoprenaline and carbachol on cultured dissociated hES cardiomyocytes were tested and compared to cultured human fetal ventricular cells (FIG. 4B). […] Similar effects were reported in mES derived cardiomyocytes 21 and mouse fetal cells (22).

[2] = test system: human fetal ventricular cells; test: Chronotropic response (beating rate) of cultured human fetal ventricular cells; assay type: cell-based
Source text: as §1, §2

Compound | effect on beating rate [1] | effect on beating rate [2]
CC(C)NCC(O)c1ccc(O)c(O)c1 (stereo not drawn) [isoprenaline] | increase | increase
CNC[C@H](O)c1cccc(O)c1 [phenylephrine] | increase | increase
C[N+](C)(C)CCOC(N)=O [Carbachol] | decreased the beating rate | decreased the beating rate

Reference: patent US20070161107A1, “Differentiation of human embryonic stem cells to cardiomyocytes” (priority 2003, published 2007)
